Measured values taken from paper PMC6272504, “Inhibitory Effects of Neochamaejasmin B on P-Glycoprotein in MDCK-hMDR1 Cells and Molecular Docking of NCB Binding in P-Glycoprotein” (Molecules, 2015).

Molecular target: T1, P-glycoprotein (Homo sapiens, UniProt P08183)
T1 construct: gene ABCB1
Assay: Rhodamine-123 accumulation kinetics (Lineweaver-Burk) and bidirectional transport in MDCK-hMDR1 cells
Type: cell-based

T1 sequence (P08183 whole entry): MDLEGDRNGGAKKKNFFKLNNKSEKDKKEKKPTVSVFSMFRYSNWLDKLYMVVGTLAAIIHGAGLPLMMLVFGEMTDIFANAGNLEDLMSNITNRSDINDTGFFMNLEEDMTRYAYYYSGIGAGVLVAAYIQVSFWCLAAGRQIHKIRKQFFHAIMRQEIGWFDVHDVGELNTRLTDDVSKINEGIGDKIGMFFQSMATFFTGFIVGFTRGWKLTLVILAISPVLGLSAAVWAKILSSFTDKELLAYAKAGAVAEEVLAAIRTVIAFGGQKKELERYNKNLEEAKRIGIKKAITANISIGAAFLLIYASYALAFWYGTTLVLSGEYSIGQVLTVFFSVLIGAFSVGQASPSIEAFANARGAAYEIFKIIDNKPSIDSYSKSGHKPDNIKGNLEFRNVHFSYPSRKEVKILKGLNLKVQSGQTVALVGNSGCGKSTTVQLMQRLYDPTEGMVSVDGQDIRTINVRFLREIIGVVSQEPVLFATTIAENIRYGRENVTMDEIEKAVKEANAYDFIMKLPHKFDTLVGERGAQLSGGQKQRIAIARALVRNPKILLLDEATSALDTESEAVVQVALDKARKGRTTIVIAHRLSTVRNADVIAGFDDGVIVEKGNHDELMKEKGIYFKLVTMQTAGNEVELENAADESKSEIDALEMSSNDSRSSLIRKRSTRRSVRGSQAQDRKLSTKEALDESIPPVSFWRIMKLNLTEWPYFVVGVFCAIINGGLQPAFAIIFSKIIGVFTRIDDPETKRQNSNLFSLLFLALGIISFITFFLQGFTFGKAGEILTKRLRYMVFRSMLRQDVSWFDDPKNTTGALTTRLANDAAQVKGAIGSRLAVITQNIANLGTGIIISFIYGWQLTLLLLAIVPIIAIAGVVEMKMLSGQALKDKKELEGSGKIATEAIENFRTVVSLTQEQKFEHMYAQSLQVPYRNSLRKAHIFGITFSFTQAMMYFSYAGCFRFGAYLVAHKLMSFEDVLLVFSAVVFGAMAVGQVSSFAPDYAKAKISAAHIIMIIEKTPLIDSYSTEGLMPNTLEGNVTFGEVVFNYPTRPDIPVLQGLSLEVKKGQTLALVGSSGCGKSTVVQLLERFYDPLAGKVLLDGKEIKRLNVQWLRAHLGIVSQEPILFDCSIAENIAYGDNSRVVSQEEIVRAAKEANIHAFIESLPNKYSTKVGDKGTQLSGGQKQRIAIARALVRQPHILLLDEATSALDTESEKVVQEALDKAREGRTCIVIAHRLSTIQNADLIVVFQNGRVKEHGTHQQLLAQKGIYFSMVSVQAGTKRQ

Ki: 45.2 µM
Compound: O=C1c2c(O)cc(O)cc2O[C@H](c2ccc(O)cc2)[C@@H]1[C@@H]1C(=O)c2c(O)cc(O)cc2O[C@H]1c1ccc(O)cc1 [NCB, Neochamaejasmin B]
